Test results: patent publication US4314028A, “Fermentation process for producing tallysomycin compounds” (priority 1980, dated 1982)

Key:
[1] = tested on: Aspergillus fumigatus IAM 2593; assay: MIC, two-fold agar dilution method; type: cell-based; settings: Sabouraud agar
Summary of the method: (§1)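 The lowest concentration preventing growth is reported as the MIC. Testing used doubling agar dilutions. The medium was Sabouraud for Aspergillus and nutrient agar for the Staphylococcus, Sarcina and Mycobacterium strains.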

[2] = tested on: Bacillus subtilis PCI 219; assay: MIC, two-fold agar dilution method; type: cell-based; settings: nutrient agar
Summary of the method: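 Compounds are diluted two-fold through agar plates: Sabouraud medium for the fungus, nutrient medium for the bacterial strains, including the acid-fast Mycobacterium 607. Organisms are then applied and the minimum inhibitory concentration is recorded.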

[3] = tested on: Candida albicans IAM 4888; assay: MIC, two-fold agar dilution method; type: cell-based; settings: Sabouraud agar
Summary of the method: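 Agar dilution (2-fold series) on nutrient agar (bacteria) or Sabouraud agar (fungi).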

Escherichia coli NIHJ = assay: MIC, two-fold agar dilution method; type: cell-based; settings: nutrient agar
Summary of the method: (§2)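 Two-fold agar dilution; nutrient agar for bacteria, Sabouraud agar for A. fumigatus. MIC = lowest inhibitory concentration.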

Mycobacterium 607 = assay: MIC, two-fold agar dilution method; type: cell-based; settings: nutrient agar
Summary of the method: as §1

Proteus mirabilis A9554 = assay: MIC, two-fold agar dilution method; type: cell-based; settings: nutrient agar
Summary of the method: as §2

Sarcina lutea PCI1001 = assay: MIC, two-fold agar dilution method; type: cell-based; settings: nutrient agar
Summary of the method: as §1

[4] = tested on: Staphylococcus aureus Smith; assay: MIC, two-fold agar dilution method; type: cell-based; settings: nutrient agar
Summary of the method: as §1

[5] = tested on: Mycobacterium smegmatis strain M6-3; assay: Relative antibacterial potency, paper-disc agar diffusion method; type: cell-based; settings: relative to tallysomycin A standard=1000 mcg/mg
Protocol: The relative antibacterial potencies (tallysomycin A standard=1000 mcg/mg) of the tallysomycin derivatives were determined by the paper-disc agar diffusion method using Mycobacterium smegmatis strain M6-3 as the assay organism.

[6] = tested on: lysogenic bacterium E. coli W1709 (λ); assay: Prophage induction of lysogenic bacterium (ILB activity); type: cell-based; settings: t/c ratio of plaque counts greater than 3.0
Summary of the method: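 Plaques counted on agar plates containing test compound and on control plates, following Lein et al. A test/control plaque ratio above 3.0 counted as significant. Value given as the minimum inducible concentration.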

[7] = tested on: Lymphocytic leukemia P388; assay: animal or person; type: in vivo, BDF1 mice; settings: copper-chelated form unless otherwise stated; for Antitumor activity P388 (ED125): ip, once daily 9 days, dose giving T/C survival of 125%; for Antitumor therapeutic index P388: single dose LD50/ED125
Summary of the method: (§3)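 P388 (3×10^5 cells) and Lewis lung (5×10^5) i.p. in BDF1 mice, B16 (5×10^5) s.c. in BDF1, Sarcoma 180 ([…]) i.p. in male dd mice. ED125 (Sarcoma 180 ED150) from median-survival T/C, 45 days; B16 ID50 from day-16 tumor size.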

Sarcoma 180 = assay: animal or person; type: in vivo, dd-strain mice; settings: copper-chelated form unless otherwise stated; for Antitumor activity S180 (ED150) / ED (T/C 150%): ip, once daily 9 days, effective dose 150, survival; for Antitumor therapeutic index S180: single dose LD50/ED150; for ED (T/C 150%): Mus musculus, 216 h, read-out: Antitumor activity S180 (ED150)
Summary of the method: as §3

Melanotic melanoma B16 = assay: Antitumor activity in mice, melanotic melanoma B16; type: in vivo, BDF1 mice; settings: copper-chelated form unless otherwise stated; for Antitumor activity B16 (ID50): ip, once daily 9 days, 50% inhibition of tumor growth, day 16, 23040 min; for Antitumor therapeutic index B16: single dose LD50/ID50
Summary of the method: as §3

Lewis lung carcinoma = assay: Antitumor activity in mice, Lewis lung carcinoma; type: in vivo, BDF1 mice; settings: copper-chelated form unless otherwise stated; for Antitumor activity Lewis lung (ED125): ip, once daily 11 days, dose giving T/C survival of 125%; for Antitumor therapeutic index Lewis Lung: single dose LD50/ED125
Excerpt: The antitumor activity of the tallysomycin derivatives was examined in four experimental tumor systems in mice. Lymphocytic leukemia P388 and Lewis lung carcinoma were implanted intraperitoneally into BDF1 mice of either sex at an inoculum size of 3×10^5 and 5×10^5 cells per mouse, respectively. Sarcoma 180 ascites tumor was inoculated intraperitoneally into male dd-strain mice with […] per mouse. Melanotic melanoma B16 was implanted subcutaneously into BDF1 mice with 5×10^5 cells per mouse. Twenty-four hours after the implantation of tumor cells, graded doses of test compounds were administered to mice intraperitoneally in an injection volume of 0.2 ml. per 10 grams of body weight. Test compounds were given once daily for 9 days (qd 1→9 schedule) except for the mice inoculated with Lewis lung carcinoma which were treated for 11 days (qd 1→11). Death or survival of the treated and non-treated (control) animals was recorded daily during the observation period of 45 days after the implantation of tumor cells, and the median survival time was calculated for each of the test (T) and control (C) groups. […] The actual dose giving a T/C of 125% was estimated by linear regression analysis and defined as the effective dose 125 or ED125. The effective dose 150 (ED150) was employed for the evaluation of antitumor effect against Sarcoma 180. In the B16 melanoma experiment the tumor size was measured on day 16 after tumor inoculation, and the dose giving 50% inhibition of tumor growth (ID50) was calculated from regression lines.
The antitumor therapeutic index was calculated for each derivative from the ratio of toxicity and antitumor activity.

[8] = Acute toxicity, single dose LD50; type: in vivo, dd mice; settings: ip, 30 days observation, copper-chelated form unless otherwise stated
Protocol: (§4) Graded doses of test compounds were administered intraperitoneally to groups of dd mice. The injection was given one time only or once daily for 9 consecutive days. Death or survival of the animals was recorded for 30 days after the last dose of test compound to calculate the single or multiple median lethal dose (LD50).

[9] = Subacute toxicity, multiple dose LD50; type: in vivo, dd mice; settings: ip, once daily 9 days, 30 days observation; copper-chelated form unless otherwise stated
Protocol: as §4

[10] = Nephrotoxicity in a mouse model utilizing BUN measurement; type: in vivo; settings: compared with bleomycin at equitoxic doses
malignant tumors = assay: Initial studies using experimental animals: antitumor activity; type: in vivo; settings: broad spectrum of malignant tumors; copper-free and copper-chelated forms
[11] = in vivo
[12] = in vivo; remark: listed apart in the source

Row | SMILES | minimum inhibitory concentration (MIC) [1] | minimum inhibitory concentration (MIC) [2] | minimum inhibitory concentration (MIC) [3] | minimum inhibitory concentration (MIC) (Escherichia coli NIHJ) | minimum inhibitory concentration (MIC) (Mycobacterium 607) | minimum inhibitory concentration (MIC) (Proteus mirabilis A9554) | minimum inhibitory concentration (MIC) (Sarcina lutea PCI1001) | minimum inhibitory concentration (MIC) [4] | Antibacterial potency [5] | ILB activity (minimum inducible concentration) [6] [µg/mL] | Antitumor activity P388 (ED125) [7] [mg/kg/day] | Antitumor therapeutic index P388 [7] | Antitumor activity S180 (ED150) (Sarcoma 180) [mg/kg/day] | Antitumor therapeutic index S180 (Sarcoma 180) | Antitumor activity B16 (ID50) (Melanotic melanoma B16) [mg/kg/day] | Antitumor therapeutic index B16 (Melanotic melanoma B16) | Antitumor activity Lewis lung (ED125) (Lewis lung carcinoma) [mg/kg/day] | Antitumor therapeutic index Lewis Lung (Lewis lung carcinoma) | LD50 single dose [8] [mg/kg/day] | LD50 multiple dose (qd 1 → 9) [9] [mg/kg/day] | other results
1 | Cc1c(N)nc(C(CC(N)=O)NCC(N)C(N)=O)nc1C(=O)NC(C(=O)NC(C)C(O)CC(=O)NC(C(=O)NC(OC1OC(C)C(N)C(O)C1O)C(O)c1nc(-c2nc(C(=O)NCCC[S+](C)C)cs2)cs1)C(C)O)C(OC1OC(CO)C(O)C(O)C1OC1OC(CO)C(O)C(OC(N)=O)C1O)c1cnc[nH]1.Cl.Cl.Cl.[Cl-] (centres unmarked) [Tallysomycin S2b] | 0.8 | < 0.05 | 25 | 0.4 | 0.2 | 1.6 | 6.3 | 1.6 | 300 μ/mg | 0.63 | 0.91 | 35 | 0.12 | 267 | 0.33 | 97 | 0.65 | 49 | 32 | 2.0 | 
2 | Cc1c(N)nc(C(CC(N)=O)NCC(N)C(N)=O)nc1C(=O)NC(C(=O)NC(C)C(O)CC(=O)NC(C(=O)NC(OC1OC(C)C(N)C(O)C1O)C(O)c1nc(-c2nc(C(=O)NCCCNCCCCN)cs2)cs1)C(C)O)C(OC1OC(CO)C(O)C(O)C1OC1OC(CO)C(O)C(OC(N)=O)C1O)c1c[nH]cn1 (centres unmarked) [Tallysomycin B (Cu-free), reference compound] |  |  |  |  |  |  |  |  |  |  | 0.89 |  |  |  |  |  | 0.11 |  | 46 | 6.8 | ED (T/C 150%) (Sarcoma 180): 0.06 mg/kg/day
3 | Cc1c(N)nc(C(CC(N)=O)NCC(N)C(N)=O)nc1C(=O)NC(C(=O)NC(C)C(O)CC(=O)NC(C(=O)NC(OC1OC(C)C(N)C(O)C1O)C(O)c1nc(-c2nc(C(=O)NCCNCC(C)O)cs2)cs1)C(C)O)C(OC1OC(CO)C(O)C(O)C1OC1OC(CO)C(O)C(OC(N)=O)C1O)c1c[nH]cn1 (centres unmarked) [Tallysomycin S5b] | 0.4 | 0.025 | 25 | 0.4 | 0.2 | 3.1 | 12.5 | 6.3 | 500 μ/mg | 0.08 | 0.66 | 70 | 0.10 | 460 | 0.31 | 148 | 0.38 | 121 | 46 | 4.0 | 
4 | Cc1c(N)nc([C@H](CC(N)=O)NC[C@H](N)C(N)=O)nc1C(=O)N[C@H](C(=O)N[C@H](C)[C@@H](O)CC(=O)N[C@H](C(=O)NC(O[C@@H]1O[C@@H](C)[C@@H](N)[C@@H](O)[C@H]1O)C(O)c1nc(-c2nc(C(=O)NCCCCN)cs2)cs1)[C@@H](C)O)[C@@H](O[C@@H]1O[C@@H](CO)[C@@H](O)[C@H](O)[C@@H]1O[C@H]1O[C@H](CO)[C@@H](O)[C@H](OC(N)=O)[C@@H]1O)c1cnc[nH]1 (some centres unmarked) [Tallysomycin S10b] | 6.3 | 0.2 | 12.5 | 0.8 | 0.2 | 3.1 | 3.1 | 6.3 | 1,100 μ/mg | 0.31 |  |  | 0.03 | 900 | 0.59 | 46 |  |  | 27 |  | toxicity to the kidney (BUN) [10]: no greater than that of bleomycin at equitoxic doses; antitumor activity (malignant tumors): excellent antitumor activity against a broad spectrum of malignant tumors; dose response slope, lung hydroxyproline [11]: flatter than that observed with bleomycin; hydroxyproline content at high doses [11]: reduced compared to that of animals treated with bleomycin at equitoxic doses; lung hydroxyproline [11]: caused an increase in lung hydroxyproline suggesting pulmonary toxicity; undesirable side effects (e.g. nephrotoxicity) [12]: less undesirable side effects (e.g. nephrotoxicity) than the naturally-occurring tallysomycin A and B
5 | Cc1c(N)nc(C(CC(N)=O)NCC(N)C(N)=O)nc1C(=O)NC(C(=O)NC(C)C(O)CC(=O)NC(C(=O)NC(OC1OC(C)C(N)C(O)C1O)C(O)c1nc(-c2nc(C(=O)NCCCC(N)CC(=O)NCCCNCCCCN)cs2)cs1)C(C)O)C(OC1OC(CO)C(O)C(O)C1OC1OC(CO)C(O)C(OC(N)=O)C1O)c1c[nH]cn1 (centres unmarked) [Tallysomycin A (Cu-free), reference compound] |  |  |  |  |  |  |  |  |  |  | 0.26 |  |  |  |  |  | 0.13 |  | 19 | 4.4 | ED (T/C 150%) (Sarcoma 180): 0.07 mg/kg/day
